Results reported in article PMC6934184, “Selective DNA-PKcs inhibition extends the therapeutic index of localized radiotherapy and chemotherapy” (The Journal of Clinical Investigation, 2019).

Target: T1, PRKACA (PKA) (Homo sapiens, UniProt P17612)
T1 construct: purchased Thermo Fisher Scientific (Life Technologies) SelectScreen
Assay: SelectScreen Z'LYTE
Type: biochemical
Method in brief: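 SelectScreen broad panel; activity (Z'LYTE, Adapta) plus binding formats. ATP: Km app for CSF1R Z'LYTE; 10 for CAMK1 Adapta. Readout = % per kinase.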

CN(C(=O)CN1CCOCC1)c1ccc2sc3c(-c4cccc5c(=O)cc(N6CC7CCC(C6)O7)oc45)cccc3c2c1 [NU5455]
inhibition at 1 µM: 14%
